Article PMC12302228 (RSC Medicinal Chemistry, 2025)
≈ marks a conversion by molar mass, not a printed value. Like-named read-outs stand apart in the source and are kept apart here.

Assays:
MCF7 = experiment: Antiproliferative activity, SRB assay; assay type: cell-based, human; conditions: mean ± SEM
M21 = experiment: Antiproliferative activity, SRB assay; assay type: cell-based, human; conditions: mean ± SEM
HT-29 = experiment: Antiproliferative activity, SRB assay; assay type: cell-based, human; conditions: mean ± SEM
HT-1080 = experiment: Antiproliferative activity, SRB assay; assay type: cell-based, human; conditions: read-out: IC50 HT-1080; 48 h of treatment; mean ± SEM
MOLM-13 = experiment: Antiproliferative activity, MTT assay; assay type: cell-based, human; conditions: read-out: IC50 MOLM-13; 48 h of treatment; mean ± SEM
THP-1 = experiment: Antiproliferative activity, MTT assay; assay type: cell-based, human; conditions: mean ± SEM
HL-60 = experiment: Antiproliferative activity, MTT assay; assay type: cell-based, human; conditions: mean ± SEM
physchem = conditions: ultrapure water, 37 °C, kinetic from dmso stock
[1] = read-out: IC50 MCF7, 48 h of treatment
[2] = read-out: IC50 M21, 48 h of treatment
[3] = read-out: IC50 HT-29, 48 h of treatment
[4] = read-out: IC50 THP-1, 48 h of treatment
[5] = read-out: IC50 HL-60, 48 h of treatment
[6] = Homo sapiens, MCF7, 48 h, read-out: IC50 MCF7, 48 h of treatment
[7] = Homo sapiens, M21, 48 h, read-out: IC50 M21, 48 h of treatment
[8] = Homo sapiens, HT-29, 48 h, read-out: IC50 HT-29, 48 h of treatment
[9] = Homo sapiens, THP-1, 48 h, read-out: IC50 THP-1, 48 h of treatment
[10] = Homo sapiens, HL-60, 48 h, read-out: IC50 HL-60, 48 h of treatment

Row | Structure (SMILES) | IC50 (MCF7; [1]) [µM] | IC50 (HT-29; [3]) [µM] | IC50 (HT-1080) [µM] | IC50 (MOLM-13) [µM] | IC50 (THP-1; [4]) [µM] | IC50 (HL-60; [5]) [µM] | solubility at 24 h (physchem) [µg/mL] | IC50 (MCF7; [6]) [µM] | IC50 (HT-29; [8]) [µM] | IC50 (THP-1; [9]) [µM] | IC50 (HL-60; [10]) [µM] | IC50 (M21; [2]) [µM] | IC50 (M21; [7]) [µM]
1 | CCNC(=O)Nc1ccc(S(=O)(=O)Oc2cccnc2Br)cc1 [Compound 1, 2-Bromopyridin-3-yl 4-(3-ethylureido)benzenesulfonate] | 31 ± 3 | 9.7 ± 0.7 | 2.1 ± 0.3 | 1.1 ± 0.2 | 7 ± 1 | 40 ± 10 | 64 ± 1 (≈ 160 µM) | – | – | – | – | 12 ± 1 | –
2 | CCNC(=O)Nc1ccc(S(=O)(=O)Oc2cccnc2C)cc1 [Compound 4, 2-Methylpyridin-3-yl 4-(3-ethylureido)benzenesulfonate] | 20 ± 3 | 56 ± 3 | 10.2 ± 0.8 | 6 ± 2 | 4.4 ± 0.2 | 50 ± 10 | 55 ± 1 (≈ 164 µM) | – | – | – | – | 79 ± 4 | –
3 | CCCNC(=O)Nc1ccc(S(=O)(=O)Oc2cccnc2Br)cc1 [Compound 5, 2-Bromopyridin-3-yl 4-(3-propylureido)benzenesulfonate] | 13 ± 1 | 17 ± 1 | 3.3 ± 0.2 | 2.6 ± 0.1 | 5.9 ± 0.5 | 19 ± 2 | 8 ± 1 (≈ 19.3 µM) | – | – | – | – | 24 ± 2 | –
4 | CCCNC(=O)Nc1ccc(S(=O)(=O)Oc2cccnc2I)cc1 [Compound 6, 2-Iodopyridin-3-yl 4-(3-propylureido)benzenesulfonate] | 13 ± 1 | 16 ± 1 | 2 ± 0.2 | 2.2 ± 0.3 | 2.4 ± 0.1 | 24 ± 5 | 23 ± 2 (≈ 49.9 µM) | – | – | – | – | 17 ± 1 | –
5 | CCCNC(=O)Nc1ccc(S(=O)(=O)Oc2cccnc2C(C)C)cc1 [Compound 7, 2-Isopropylpyridin-3-yl 4-(3-propylureido)benzenesulfonate] | – | – | – | – | – | 24 ± 4 | 7 ± 1 (≈ 18.5 µM) | 17 ± 1 | 14 ± 1 | 2.6 ± 0.6 | – | – | 22 ± 2
6 | CCCNC(=O)Nc1ccc(S(=O)(=O)Oc2cccnc2C)cc1 [Compound 8, 2-Methylpyridin-3-yl 4-(3-propylureido)benzenesulfonate] | – | – | 5.1 ± 0.5 | – | – | 35 ± 7 | 44 ± 1 (≈ 126 µM) | 19 ± 2 | 70 ± 8 | 3.5 ± 0.9 | – | – | 69 ± 3
7 | O=C(NCCCl)Nc1ccc(S(=O)(=O)Oc2cccnc2Br)cc1 [Compound 9, 2-Bromopyridin-3-yl 4-(3-(2-chloroethyl)ureido)benzenesulfonate] | – | – | – | – | 1.2 ± 0.5 | 12 ± 1 | 56 ± 2 (≈ 129 µM) | 16 ± 1 | 17 ± 1 | – | – | – | 23 ± 1
8 | O=C(NCCCl)Nc1ccc(S(=O)(=O)Oc2cccnc2I)cc1 [Compound 10, 2-Iodopyridin-3-yl 4-(3-(2-chloroethyl)ureido)benzenesulfonate] | 5 ± 1 | 9 ± 1 | – | – | – | 6.9 ± 0.3 | 4.4 ± 0.1 (≈ 9.13 µM) | – | – | 1 ± 0.1 | – | – | 9 ± 1
9 | CC(C)c1ncccc1OS(=O)(=O)c1ccc(NC(=O)NCCCl)cc1 [Compound 11, 2-Isopropylpyridin-3-yl 4-(3-(2-chloroethyl)ureido)benzenesulfonate] | – | – | – | – | – | 27 ± 6 | 41 ± 3 (≈ 103 µM) | 17 ± 1 | 14 ± 1 | 2.3 ± 0.9 | – | 20 ± 1 | –
10 | CCNC(=O)Nc1ccc(S(=O)(=O)Oc2cnccc2Br)cc1 [Compound 12, 4-Bromopyridin-3-yl 4-(3-ethylureido)benzenesulfonate] | – | – | – | – | – | – | 64 ± 1 (≈ 160 µM) | 32 ± 4 | 25 ± 1 | 4 ± 0.6 | > 50 | 21 ± 1 | –
11 | CCNC(=O)Nc1ccc(S(=O)(=O)Oc2cnccc2I)cc1 [Compound 13, 4-Iodopyridin-3-yl 4-(3-ethylureido)benzenesulfonate] | – | – | – | – | – | – | 63 ± 1 (≈ 141 µM) | 15 ± 2 | 12 ± 1 | 1.8 ± 0.5 | 25 ± 7 | – | 9 ± 1
12 | CCNC(=O)Nc1ccc(S(=O)(=O)Oc2cnccc2C)cc1 [Compound 14, 4-Methylpyridin-3-yl 4-(3-ethylureido)benzenesulfonate] | – | – | – | – | 6 ± 2 | – | 49 ± 4 (≈ 146 µM) | 31 ± 3 | 16 ± 1 | – | > 100 | – | 31 ± 3
13 | CCCNC(=O)Nc1ccc(S(=O)(=O)Oc2cnccc2Br)cc1 [Compound 15, 4-Bromopyridin-3-yl 4-(3-propylureido)benzenesulfonate] | – | – | 4.1 ± 0.3 | – | – | – | 35 ± 3 (≈ 84.5 µM) | 12 ± 1 | 19 ± 1 | 6 ± 1 | 21 ± 5 | – | 28 ± 2

The next lines start with results.

Row | IC50 (MCF7; [1]) [µM] | IC50 (HT-29; [3]) [µM] | IC50 (HT-1080) [µM] | IC50 (MOLM-13) [µM] | IC50 (THP-1; [4]) [µM] | IC50 (HL-60; [5]) [µM] | solubility at 24 h (physchem) [µg/mL] | IC50 (MCF7; [6]) [µM] | IC50 (HT-29; [8]) [µM] | IC50 (THP-1; [9]) [µM] | IC50 (HL-60; [10]) [µM] | Structure (SMILES) | IC50 (M21; [2]) [µM] | IC50 (M21; [7]) [µM]
14 | 5 ± 1 | 6.9 ± 0.5 | – | 1.3 ± 0.3 | – | 18 ± 4 | 53 ± 6 (≈ 115 µM) | – | – | 1.5 ± 0.4 | – | CCCNC(=O)Nc1ccc(S(=O)(=O)Oc2cnccc2I)cc1 [Compound 16, 4-Iodopyridin-3-yl 4-(3-propylureido)benzenesulfonate] | 9.7 ± 0.9 | –
15 | 12 ± 1 | 12 ± 1 | 7.5 ± 0.5 | 4 ± 0.6 | – | 43 ± 7 | 52 ± 2 (≈ 149 µM) | – | – | 7.3 ± 0.8 | – | CCCNC(=O)Nc1ccc(S(=O)(=O)Oc2cnccc2C)cc1 [Compound 17, 4-Methylpyridin-3-yl 4-(3-propylureido)benzenesulfonate] | 24 ± 1 | –
16 | – | – | – | – | – | – | 24 ± 2 (≈ 49.8 µM) | 2.8 ± 0.4 | 2.7 ± 0.2 | 1.2 ± 0.3 | 3 ± 1 | O=C(NCCCl)Nc1ccc(S(=O)(=O)Oc2cnccc2I)cc1 [Compound 18, 4-Iodopyridin-3-yl 4-(3-(2-chloroethyl)ureido)benzenesulfonate] | – | 2.8 ± 0.3
17 | – | 26 ± 2 | – | – | – | > 100 | 173 ± 2 | 28 ± 2 | – | 7 ± 3 | – | CCNC(=O)Nc1ccc(S(=O)(=O)Oc2cccnc2Br)cc1.Cl [Compound 19, 2-Bromopyridin-3-yl 4-(3-ethylureido)benzenesulfonate hydrochloride] | 27 ± 2 | –
18 | 51 ± 5 | – | 26 ± 2 | – | – | – | 152 ± 4 | – | > 100 | 5 ± 2 | 60 ± 20 | CCNC(=O)Nc1ccc(S(=O)(=O)Oc2cccnc2C)cc1.Cl [Compound 22, 2-Methylpyridin-3-yl 4-(3-ethylureido)benzenesulfonate hydrochloride] | – | > 100
19 | – | 42 ± 2 | – | – | – | – | 79 ± 9 | 22 ± 2 | – | 10 ± 0.3 | 37 ± 7 | CCCNC(=O)Nc1ccc(S(=O)(=O)Oc2cccnc2Br)cc1.Cl [Compound 23, 2-Bromopyridin-3-yl 4-(3-propylureido)benzenesulfonate hydrochloride] | – | 45 ± 2
20 | – | – | – | – | – | – | 120 ± 10 | 22 ± 2 | 28 ± 2 | 3.9 ± 0.7 | 30 ± 10 | CCCNC(=O)Nc1ccc(S(=O)(=O)Oc2cccnc2I)cc1.Cl [Compound 24, 2-Iodopyridin-3-yl 4-(3-propylureido)benzenesulfonate hydrochloride] | – | 29 ± 2
21 | 16 ± 1 | 15 ± 0.8 | 2.4 ± 0.2 | 1.9 ± 0.5 | 2.4 ± 0.9 | 8 ± 3 | 26 ± 3 | – | – | – | – | CCCNC(=O)Nc1ccc(S(=O)(=O)Oc2cccnc2C(C)C)cc1.Cl [Compound 25, 2-Isopropylpyridin-3-yl 4-(3-propylureido)benzenesulfonate hydrochloride] | 20 ± 1 | –
22 | 33 ± 4 | > 100 | 15 ± 2 | 14 ± 2 | 6 ± 2 | 15 ± 3 | 151 ± 1 | – | – | – | – | CCCNC(=O)Nc1ccc(S(=O)(=O)Oc2cccnc2C)cc1.Cl [Compound 26, 2-Methylpyridin-3-yl 4-(3-propylureido)benzenesulfonate hydrochloride] | > 100 | –
23 | 16 ± 1 | 33 ± 1 | 5.5 ± 0.4 | 4.8 ± 0.7 | 4.9 ± 0.3 | > 50 | 189 ± 5 | – | – | – | – | Cl.O=C(NCCCl)Nc1ccc(S(=O)(=O)Oc2cccnc2Br)cc1 [Compound 27, 2-Bromopyridin-3-yl 4-(3-(2-chloroethyl)ureido)benzenesulfonate hydrochloride] | 30 ± 2 | –
24 | 13 ± 1 | 21 ± 1 | 3.1 ± 0.2 | 2.4 ± 0.4 | 1.8 ± 0.7 | 19 ± 4 | 37 ± 2 | – | – | – | – | Cl.O=C(NCCCl)Nc1ccc(S(=O)(=O)Oc2cccnc2I)cc1 [Compound 28, 2-Iodopyridin-3-yl 4-(3-(2-chloroethyl)ureido)benzenesulfonate hydrochloride] | 15 ± 1 | –
25 | 14 ± 1 | 10.5 ± 0.5 | 3.3 ± 0.2 | 2.5 ± 0.9 | 2.6 ± 0.9 | 13 ± 4 | 126 ± 5 | – | – | – | – | CC(C)c1ncccc1OS(=O)(=O)c1ccc(NC(=O)NCCCl)cc1.Cl [Compound 29, 2-Isopropylpyridin-3-yl 4-(3-(2-chloroethyl)ureido)benzenesulfonate hydrochloride] | 9.7 ± 0.5 | –
